Assays:
HL60 = test: CellTiter-Blue cell-based survival/proliferation assay, HL60; conditions: Homo sapiens, HL-60, Leukemia cell line HL60, 48 h, read-out: Anti-tumoral activity (measured IC50) HL60
How it was run: (§1)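 Tenfold compound dilutions (0–10 μM) were added to 1·10^4 cells/well. Plates incubated 48 h at 37 °C. CellTiter-Blue reduction (4 h, 37 °C) was read as fluorescence at 590 nm, background-corrected with a cell-free blank.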

HUT78 = test: CellTiter-Blue cell-based survival/proliferation assay, HUT78; conditions: Homo sapiens, Lymphoma cell line HUT78, 48 h, read-out: Anti-tumoral activity (measured IC50) HUT78
How it was run: as §1

KARPAS299 = test: CellTiter-Blue cell-based survival/proliferation assay, KARPAS299; conditions: Homo sapiens, KARPAS-299, Lymphoma cell line KARPAS299, 48 h, read-out: Anti-tumoral activity (measured IC50) KARPAS299
How it was run: as §1

REC1 = test: CellTiter-Blue cell-based survival/proliferation assay, REC1; conditions: Homo sapiens, Lymphoma cell line REC1, 48 h, read-out: Anti-tumoral activity (measured IC50) REC1
How it was run: as §1

OPM2 = test: CellTiter-Blue cell-based survival/proliferation assay, OPM2; conditions: Homo sapiens, OPM-2, Myeloma cell line OPM2, 48 h, read-out: Anti-tumoral activity (measured IC50) OPM2
How it was run: as §1

A498 = test: CellTiter-Blue cell-based survival/proliferation assay, A498; conditions: Homo sapiens; A498 kidney tumor cell line, 48 h
How it was run: as §1

A549 = test: CellTiter-Blue cell-based survival/proliferation assay, A549; conditions: Homo sapiens; A549 lung tumor cell line, 48 h
How it was run: as §1

ACHN = test: CellTiter-Blue cell-based survival/proliferation assay, ACHN; conditions: Homo sapiens; ACHN kidney tumor cell line, 48 h
How it was run: as §1

AGS = test: CellTiter-Blue cell-based survival/proliferation assay, AGS; conditions: Homo sapiens; AGS stomach tumor cell line, 48 h
How it was run: as §1

BT20 = test: CellTiter-Blue cell-based survival/proliferation assay, BT20; conditions: Homo sapiens, BT-20; BT20 breast tumor cell line, 48 h
How it was run: as §1

BXPC3 = test: CellTiter-Blue cell-based survival/proliferation assay, BXPC3; conditions: Homo sapiens, BXPC-3; BXPC3 pancreas tumor cell line, 48 h
How it was run: as §1

CALU6 = test: CellTiter-Blue cell-based survival/proliferation assay, CALU6; conditions: Homo sapiens, Calu-6; CALU6 lung tumor cell line, 48 h
How it was run: as §1

CLS354 = test: CellTiter-Blue cell-based survival/proliferation assay, CLS354; conditions: Homo sapiens, CLS-354; CLS354_4 head & neck tumor cell line, 48 h
How it was run: as §1

DLD1 = test: CellTiter-Blue cell-based survival/proliferation assay, DLD1; conditions: Homo sapiens, DLD-1; DLD_1 colorectal tumor cell line, 48 h
How it was run: as §1

DU145 = test: CellTiter-Blue cell-based survival/proliferation assay, DU145; conditions: Homo sapiens, DU-145; DU145 prostate tumor cell line, 48 h
How it was run: as §1

H1299 = test: CellTiter-Blue cell-based survival/proliferation assay, H1299; conditions: Homo sapiens, NCI-H1299; H1299 lung tumor cell line, 48 h
How it was run: as §1

HCT116 = test: CellTiter-Blue cell-based survival/proliferation assay, HCT116; conditions: Homo sapiens, HCT-116; HCT116 colorectal tumor cell line, 48 h
How it was run: as §1

HEP2 = test: CellTiter-Blue cell-based survival/proliferation assay, HEP2; conditions: Homo sapiens, HEp-2; HEP2 head & neck tumor cell line, 48 h
How it was run: as §1

HEPG2 = test: CellTiter-Blue cell-based survival/proliferation assay, HEPG2; conditions: Homo sapiens; HEPG2 liver tumor cell line, 48 h
How it was run: as §1

HGC27 = test: CellTiter-Blue cell-based survival/proliferation assay, HGC27; conditions: Homo sapiens, HGC-27; HGC27 stomach tumor cell line, 48 h
How it was run: as §1

MDAMB231 = test: CellTiter-Blue cell-based survival/proliferation assay, MDAMB231; conditions: Homo sapiens, MDA-MB-231; MDAMB231 breast tumor cell line, 48 h
How it was run: as §1

MESSA = test: CellTiter-Blue cell-based survival/proliferation assay, MESSA; conditions: Homo sapiens, MES-SA; MESSA ovary tumor cell line, 48 h
How it was run: as §1

PANC1 = test: CellTiter-Blue cell-based survival/proliferation assay, PANC1; conditions: Homo sapiens, PANC-1; PANC_1 pancreas tumor cell line, 48 h
How it was run: as §1

PC3 = test: CellTiter-Blue cell-based survival/proliferation assay, PC3; conditions: Homo sapiens, PC-3; PC3 prostate tumor cell line, 48 h
How it was run: as §1

PLCPRF5 = test: CellTiter-Blue cell-based survival/proliferation assay, PLCPRF5; conditions: Homo sapiens, PLC-PRF-5; PLC_PRF5 liver tumor cell line, 48 h
How it was run: as §1

SW579 = test: CellTiter-Blue cell-based survival/proliferation assay, SW579; conditions: Homo sapiens; SW579 head & neck tumor cell line, 48 h
How it was run: as §1

TOV112D = test: CellTiter-Blue cell-based survival/proliferation assay, TOV112D; conditions: Homo sapiens; TOV112D ovary tumor cell line, 48 h
How it was run: as §1

[1] = tested on: panel of about 34 human tumor cell lines; test: Cell-based proliferation screening on panel of tumor cell lines; conditions: solid tumor cell line, cell line unknown, 48 h, read-out: IC50, solid tumor cell line of column 6 (last section of Table 3)
How it was run: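 CellTiter-Blue survival assay with 1·10^4 cells/well, each line treated 48 h at 37° C with 1/10 serial dilutions from 0 to 10 μM. Resorufin formed during a 4 h reagent incubation is read by fluorescence at 590 nm. A cell-free blank serves as background.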

Row | Compound | IC50 (HL60) [nM] | IC50 (HUT78) [nM] | IC50 (KARPAS299) [nM] | IC50 (REC1) [nM] | IC50 (OPM2) [nM] | IC50 (A498) [nM] | IC50 (A549) [nM] | IC50 (ACHN) [nM] | IC50 (AGS) [nM] | IC50 (BT20) [nM] | IC50 (BXPC3) [nM] | IC50 (CALU6) [nM] | IC50 (CLS354) [nM] | IC50 (DLD1) [nM] | IC50 (DU145) [nM] | IC50 (H1299) [nM] | IC50 (HCT116) [nM] | IC50 (HEP2) [nM] | IC50 (HEPG2) [nM] | IC50 (HGC27) [nM] | other results
1 | CCOCc1ccc(C)c(Nc2ncc(-c3ccc(-n4ccc(C)n4)cc3)o2)c1 [Example 039, (5-Ethoxymethyl-2-methyl-phenyl)-{5-[4-(3-methyl-pyrazol-1-yl)-phenyl]-oxazol-2-yl}-amine] | 500 to 1000 | 500 to 1000 | 500 to 1000 | 500 to 1000 | > 1000 | > 1000 | > 1000 | > 1000 | > 1000 | > 1000 | > 1000 | > 1000 | > 1000 | > 1000 | > 1000 | > 1000 | > 1000 | > 1000 | > 1000 | > 1000 | IC50 (MDAMB231): > 1000 nM; IC50 (MESSA): > 1000 nM; IC50 (PANC1): > 1000 nM; IC50 (PC3): > 1000 nM; IC50 (PLCPRF5): > 1000 nM; IC50 (SW579): > 1000 nM; IC50 (TOV112D): > 1000 nM; IC50 [1]: > 1000 nM
2 | CCOCc1ccc(C)c(Nc2ncc(-c3ccc(-n4cc(C)cn4)cc3)o2)c1 [Example 040, (5-Ethoxymethyl-2-methyl-phenyl)-{5-[4-(4-methyl-pyrazol-1-yl)-phenyl]-oxazol-2-yl}-amine] | > 1000 | > 1000 | > 1000 | > 1000 | > 1000 | > 1000 | > 1000 | > 1000 | > 1000 | > 1000 | > 1000 | > 1000 | > 1000 | > 1000 | > 1000 | > 1000 | > 1000 | > 1000 | > 1000 | > 1000 | IC50 (MDAMB231): > 1000 nM; IC50 (MESSA): > 1000 nM; IC50 (PANC1): > 1000 nM; IC50 (PC3): > 1000 nM; IC50 (PLCPRF5): > 1000 nM; IC50 (SW579): > 1000 nM; IC50 (TOV112D): > 1000 nM; IC50 [1]: > 1000 nM
3 | CCOCc1ccc(C)c(Nc2ncc(-c3ccc(N4CCN(C)C4=O)cc3)o2)c1 [Example 044, 1-{4-[2-(5-Ethoxymethyl-(2-methyl-phenylamino))-oxazol-5-yl]-phenyl}-3-methyl-imidazolidin-2-one] | 100 to 500 | 500 to 1000 | 100 to 500 | 100 to 500 | 500 to 1000 | > 1000 | > 1000 | > 1000 | > 1000 | > 1000 | > 1000 | > 1000 | 500 to 1000 | > 1000 | > 1000 | > 1000 | > 1000 | > 1000 | > 1000 | > 1000 | IC50 (MDAMB231): > 1000 nM; IC50 (MESSA): > 1000 nM; IC50 (PANC1): > 1000 nM; IC50 (PC3): 500 to 1000 nM; IC50 (PLCPRF5): > 1000 nM; IC50 (SW579): > 1000 nM; IC50 (TOV112D): > 1000 nM; IC50 [1]: 100 to 500 nM

— patent US10570122B2, “Compounds with anti-tumoral activity” (AB Science, priority 2015, dated 2020)
